Measured values reported in the Bradley open melting point set (2014).
Counter-ions that a name gives are not always drawn.

Compound | melting point [°C]
CCCCCCCCCCCC(N)=O [Lauramide] | 99
OC1c2ccccc2-c2ccccc21 [9-fluorenol] | 156
CC(=O)Oc1ccc(C(=O)O)cc1 [4-acetoxybenzoic_acid] | 194
O=CC[C@H](O)[C@H](O)CO [2-deoxy-D-ribose] | 85
N#Cc1cccnc1Oc1ccccc1 [3-cyano-2-phenoxypyridine] | 108
Cc1ccc(Cl)cc1[N+](=O)[O-] [4-chloro-2-nitrotoluene] | 39
O=c1[nH]c(=O)n([C@H]2C[C@H](O)[C@@H](CO)O2)cc1F [5-fluoro-2'-deoxyuridine] | 150
Cc1cccc(C(=O)NCC(=O)O)c1 [3-methylhippuric acid] | 139
CCOC(=O)c1ccccc1B(O)O [2-(ethoxycarbonyl)benzeneboronic acid] | 132
COc1cccc(C(CC(=O)O)NC(=O)OC(C)(C)C)c1 (stereo not drawn) [3-(boc-amino)-3-(3-methoxyphenyl)propionic acid] | 82
ClC1C(Cl)C(Cl)C(Cl)C(Cl)C1Cl (stereo not drawn) [Lindane] | 114
CCCCCCCCCCl [1-chlorononane] | -39
Nc1ccc(S(=O)(=O)Nc2ccccn2)cc1 [4-Amino-N-(pyridin-2-yl)benzenesulfonamide] | 192
COC1=CC(=O)C[C@@H](C)[C@]12Oc1c(Cl)c(OC)cc(OC)c1C2=O [Griseofulvin] | 220
CN(C)C(=O)Nc1ccc(Cl)c(Cl)c1 [Diuron] | 159
O=[N+]([O-])c1c(Br)sc(Br)c1[N+](=O)[O-] [2,5-dibromo-3,4-dinitrothiophene] | 136
CC(=O)Nc1c(Br)cc(N)cc1Br [4'-amino-2',6'-dibromoacetanilide] | 248
Clc1ccc(-c2ccc(Cl)c(Cl)c2Cl)cc1Cl [PCB-105] | 117
CCc1ccccc1O [2-ethylphenol] | -18
N#CC(c1ccccc1)N1CCOCC1 (stereo not drawn) [alpha-(4-morpholinyl)phenylacetonitrile] | 69
CSc1ccccc1C(=O)O [2-(methylthio)benzoic acid] | 167
CC1(C(=O)O)CCCCC1 [1-Methylcyclohexanecarboxylic acid] | 38
C=CCCCCCCCC [1-decene] [listing 1 of 2 here] | -66

Compound | melting point [°C]
O=C1NC(=O)c2cc([N+](=O)[O-])ccc21 [5-Nitro-1H-isoindole-1,3(2H)-dione] | 181
CCCCCCCCCCI [1-iododecane] | -16
CNC(=O)Oc1cccc2ccccc12 [1-Naphthyl methylcarbamate] | 142
Oc1ccc(Br)cc1-c1cc[nH]n1 [4-bromo-2-(1h-pyrazol-3-yl)phenol] | 162
Clc1ccc(Cl)c(I)c1 [1,4-dichloro-2-iodobenzene] | 21
C=CC=O [acrolein] | -87
C1CC[C@H]2CCCC[C@H]2C1 [cis-decalin] | -43
CC(=O)Oc1ccc(-c2ccccc2)cc1 [4-acetoxybiphenyl] | 88
CN1CCCN(C)C1=O [1,3-dimethyl-3,4,5,6-tetrahydro-2(1h)-pyrimidinone] | -23
CCOC(=O)Nc1ccc(C)cc1[N+](=O)[O-] [Ethyl (4-methyl-2-nitrophenyl)carbamate] | 65
OCc1cccc(CO)c1 [1,3-benzenedimethanol] | 58
O=C(O)CCC(=O)c1cccs1 [4-oxo-4-(2-thienyl)butyric acid] | 119
O=C1c2c(O)cccc2Cc2cccc(O)c21 [1,8-Dihydroxyanthracen-9(10H)-one] | 181
NS(=O)(=O)c1cc2c(cc1Cl)NCNS2(=O)=O [Hydrochlorothiazide] | 274
O=Cc1ccnc(Cl)c1 [2-chloropyridine-4-carboxaldehyde] | 48
OCCc1ccc(OCc2ccccc2)cc1 [2-(4-benzyloxyphenyl)ethanol] | 86
O=[N+]([O-])c1cccc(CO)c1 [3-nitrobenzyl_alcohol] | 32
CN1[C@@H]2CC[C@H]1CC(=O)C2 [Tropinone] | 43
N#Cc1ccccc1O [2-hydroxybenzonitrile] | 94
Oc1ccc(-c2ccccc2)cc1 [p-phenylphenol] | 167
Cc1ccccc1F [2-fluorotoluene] | -87
CC1=NN(CN2CCCCC2)C(=O)/C1=N\Nc1ccc(Cl)cc1Cl | 123
C=C1C(C[C@@H](O)C[C@@H]1O)=CC=C2/CCC[C@]3(C)[C@H](CC[C@@H]23)[C@H](C)CCCC(C)(C)O [Calcitriol] | 113

Compound | melting point [°C]
Cc1ccc(CCc2ccc(C)cc2)cc1 [1,2-di(p-tolyl)ethane] | 81
Cc1ccc([N+](=O)[O-])cc1 [p-nitrotoluene] | 54
c1ccncc1 [Pyridine] | -42
CC1(O)CCCC1 [1-methylcyclopentanol] | 37
CC(=O)Nc1ccc(O)cc1 [4-acetamidophenol] | 169
CC1CCC(C(C)C)C(OC(=O)C(=O)/C=C/c2ccccc2)C1 (stereo not drawn) | 46
CC(Cl)C(=O)O (stereo not drawn) [2-Chloropropanoic acid] | -13
Nc1cccnc1N [2,3-diaminopyridine] | 112
COC(=O)c1ccccc1N [Methyl 2-aminobenzoate] | 24
O=C(Cl)c1ccccc1F [2-fluorobenzoyl chloride] | 5
CCCCCCCCC(C)=O [2-decanone] | 3
CCc1c(C)[nH]c2ccc(N(C)C)cc12 [Medmain] | 100
Cc1cc(F)ccc1B(O)O [4-fluoro-2-methylbenzeneboronic acid] | 200
COc1cc(C(=O)Cl)cc(OC)c1OC [3,4,5-trimethoxybenzoyl chloride] | 80
CC(=O)Nc1ccccc1C(C)C [2'-isopropylacetanilide] | 73
CC(O)CN (stereo not drawn) [1-Aminopropan-2-ol] | -2
C[C@@H](O)CO [1,2-Propanediol] | -60
C=CCCCCCCCC [1-decene] [listing 2 of 2 here] | -66.1
N#Cc1c(OCC(F)(F)F)cccc1OCC(F)(F)F [2,6-bis(2,2,2-trifluoroethoxy)benzonitrile] | 116
O=C1CN=C(c2ccccc2)c2cc(Cl)ccc2N1CC(F)(F)F [halazepam] | 164
O=C(O)c1cc(=O)[nH]c(=O)[nH]1 [Cholergol] | 345

Further lines, results first:

melting point [°C] | Compound
-12 | COC(=O)c1ccccc1 [Methyl benzoate]
153 | O=C(O)CCCCC(=O)O [adipic_acid]
88 | CC(C)(C)OC(=O)O/N=C(\C#N)c1ccccc1 [boc-on]
-48 | ClC/C=C\CCl [cis-1,4-dichloro-2-butene]
37 | CCOC(=O)Cc1ccc(O)cc1 [ethyl 4-hydroxyphenylacetate]
66 | C=C(C)c1ccc(C(=C)C)cc1 [p-diisopropenylbenzene]
81 | CCOC(=O)N1C(=O)c2ccccc2C1=O [N-(ethoxycarbonyl)phthalimide]
-100 | COC=O [methyl formate]
237 | O=C(O)c1cccnc1 [Niacin]
107 | CCCCN1CCCCC1C(=O)Nc1c(C)cccc1C (stereo not drawn) [bupivacaine]
0 | CCCCCCCCN [octylamine]
369 | c1ccc([Si](c2ccccc2)(c2ccccc2)[Si](c2ccccc2)(c2ccccc2)c2ccccc2)cc1 [hexaphenyldisilane]
119 | COc1cc(C(=O)OCc2cccc(COC(=O)c3cc(OC)c(OC)c(OC)c3)n2)cc(OC)c1OC [pirozadil]
-35 | Cc1ccccc1Cl [o-chlorotoluene]
147 | c1ccc(B(c2ccccc2)c2ccccc2)cc1 [triphenylborane]
85 | C[C@@H](NC(=O)OCc1ccccc1)C(=O)O [N-benzyloxycarbonyl-D-alanine]
330 | O=c1cc[nH]c(=O)[nH]1 [Uracil]
183 | CO[C@H]1C=CO[C@@]2(C)Oc3c(C)c(O)c4c(O)c(c(/C=N/N5CCN(C)CC5)c(O)c4c3C2=O)NC(=O)C(C)=CC=C[C@H](C)[C@H](O)[C@@H](C)[C@H](O)[C@H](C)[C@H](OC(C)=O)[C@@H]1C [Rifampin]

melting point [°C] | Compound
-70 | CCCCN(CCCC)CCCN [N,N-di-n-butyl-1,3-propylenediamine]
180 | O=C1CCC(=O)N1Br [n-bromosuccinimide]
50 | COC(=O)c1ccc(OC)cc1 [methyl_4-methoxybenzoate]
47 | O=CNc1ccccc1 [N-Phenylformamide]
176 | CC1(c2ccccc2)OC(C(=O)O)=CC1=O (stereo not drawn) [acifran]
33 | COC(=O)n1ccc(C)n1 [methyl 3-methyl-1H-pyrazole-1-carboxylate]
-76 | C[Si](C)(Cl)Cl [dichlorodimethylsilane]
124 | CCOC(=O)n1ccn(C)c1=S [ethyl 3-methyl-2-thionoimidazoline-1-carboxylate]
72 | COC(=O)NN [methyl carbazate]
335 | CC(=O)Nc1ccc2c(c1)NC(=O)C2 [N-(2-oxo-2,3-dihydro-1H-indol-6-yl)acetamide]
30 | O=C(O)C1CCCCC1 [cyclohexanecarboxylic acid]
59 | C[C@@H](CO)NC(=O)OC(C)(C)C [N-boc-L-alaninol]
140 | NC(=O)c1ccccc1O [salicylamide]
268 | C1C2CC3CC1CC(C2)C3 [adamantane]
-100 | CCOCCC(=O)OCC [ethyl 3-ethoxypropionate]
77 | O=C(O)[C@@H]1CCCN1C(=O)OCc1ccccc1 [N-Cbz-L-proline]
97 | COC(=O)c1cncc(Br)c1 [methyl 5-bromonicotinate]
124 | CC(C)(C)NCC(O)COc1cccc2c1C[C@H](O)[C@H](O)C2 (stereo partly drawn) [Nadolol]
